Measured values: article PMC8434134, “Biflavonoids from Selaginella doederleinii as Potential Antitumor Agents for Intervention of Non-Small Cell Lung Cancer” (Molecules, 2021)

Columns and labels:
H1299 cells = experiment: MTT antiproliferative assay, H1299; format: cell-based, human; conditions: mean of n = 3
From the text: (§1) To evaluate the anti-NSCLC activity of compounds 1–5, we tested their inhibitory effect on the proliferation of two NSCLC cell lines (A549 and H1299) as well as human normal embryonic lung cell line MRC-5 by the MTT assay using Cis-platin (DDP) as a positive control. […] Among them, compounds 1–3 were further studied for their potential apoptosis-mediated death of A549 cells because of their promising antiproliferative activity against NSCLC cells.
(§2) Human lung carcinoma cell lines (A549), human lung adenocarinoma epithelial cell lines (H1299) and human normal embryonic lung cell lines (MRC-5) were purchased from the Chinese Academy of Sciences (Shanghai). H1299 and MRC-5 cells were maintained in RPMI1640 medium, and A549 cell lines were maintained in MEN medium. Both media were supplemented with 10% fetal bovine serum. All of the cell lines were grown at 37 °C in a 5% CO2 atmosphere. The cell lines mentioned above were checked for mycoplasma contamination, and no contamination was observed.
(§3) Cytotoxicity of test compounds was assessed by the MTT assay. A549, H1299 and MRC-5 cells at a final density (3000 cells/well) were placed in 96-well cell plates and treated with or without different concentrations of the test compounds for 24 h. At the end of the treatment, 3-(4,5-dimethyl-2-thiazolyl)-2,5-diphenyl-2-H-tetrazolium bromide (MTT, […], 5 mg/mL) was added into each well, and the cells were further incubated for 4 h. The resulting formazan crystals were dissolved in […] of DMSO and the absorbance was read spectrophotometrically at 570 nm using an enzyme-linked immunosorbent assay plate reader. Experiments were conducted in triplicate. Inhibition rate (%) = [(Acontrol − Atreated)/Acontrol] × 100%. IC50 value represents the half of maximal inhibitory concentration.

A549 cells [1] = experiment: FITC-Annexin V/PI apoptosis assay by flow cytometry; format: cell-based, human; conditions: 3 μM, 24 h
Protocol: Subsequently, to further verify the apoptosis induction potential of compounds 1–3, quantification of Annexin V-FITC/PI double positive cells was performed using flow cytometry analysis. A549 cells were incubated with indicated compounds, and the percentages of apoptotic A549 cells were determined by FITC-Annexin V and PI staining and flow cytometry.
Cells were incubated in six-well plates (1 × 10^5/well) and treated with vehicle control (i.e., 1% DMSO in buffer) or compounds 1–3 at 3 μM for 24 h, respectively. The collected cells were harvested, washed with PBS, and then stained with FITC-Annexin-V and PI. Apoptosis was determined with flow cytometry.

MRC-5 cells = experiment: MTT cytotoxicity assay, non-cancer MRC-5; format: cell-based; conditions: mean of n = 3, non-cancer cells
From the text: as §1, §2, §3

A549 cells [2] = experiment: MTT antiproliferative assay, A549; format: cell-based, human; conditions: mean of n = 3
From the text: as §1, §2, §3

cleaved caspase-3 = experiment: Western blot, cleaved caspase-3 level in A549 cells; format: cell-based, human; conditions: 3 μM, 24 h, β-actin as control
Protocol: (§4) Furthermore, to elucidate the mechanism underlying the apoptosis-inducing activity of compounds 1–3, we examined their regulatory effect on the expression of caspase-3/cleaved-caspase-3, which are hallmarks of apoptosis.
(§5) A549 cells (1 × 10^5/well) were cultured in six-well plates overnight and treated in triplicate with vehicle DMSO (0.1%, v/v) alone, or with indicated compound at 3 μM for 24 h. The cells were harvested and lysed with cell lysis buffer containing protease and phosphatase inhibitor cocktails (Beyotime, Shanghai, China). The concentrations of protein were determined using a BCA protein assay kit (Beyotime, Shanghai, China) and equalized before loading. Samples were denatured and subjected to SDS-PAGE gels followed by transfer to PVDF membrane and probed with specific antibodies against cleaved caspase-3, caspase-3, survivin, XIAP, β-actin, and GAPDH (Abcam, Shanghai, China), and then incubated with the secondary antibodies diluted in TBST. Finally, the protein bands were detected with ECL Western Blotting Kit according to the manufacturer’s specifications. Eventually, films were obtained and the light density of the target bar was analyzed by Image J software.

A549 cells [3] = experiment: Cell cycle analysis, PI staining and flow cytometry; format: cell-based, human; conditions: 24 h
Protocol: In addition to apoptosis, the induction of cell cycle arrest is an important means to control the growth and development of cancer cells. To investigate whether 3 suppressed the cells’ growth by arresting the cell cycle, we performed the experiment where cell cycle distribution was analyzed with flow cytometry after staining the DNA with propidium iodide (PI).
A549 cells were treated with vehicle control (i.e., 1% DMSO in buffer) or compound 3 at indicated concentration for 24 h, respectively. The cells were harvested, washed, then fixed with 70% ethanol at −20 °C for 8 h, and incubated with PI/RNase staining buffer (BD Pharmingen) for 15 min at room temperature (25 °C). The DNA content in the different groups of cells was assessed with flow cytometry and analyzed by the software MODFIT.

survivin = experiment: Western blot, survivin expression in A549 cells; format: cell-based, human; conditions: 3 μM, 24 h, GAPDH as control
Protocol: (§6) The X-linked mammalian inhibitor of apoptosis protein (XIAP) and survivin, known as the inhibitor-of-apoptosis protein (IAP) members, play an important regulatory role in the caspase-dependent apoptosis. Therefore, the Western blot assay experiments were further performed to examine whether the inhibition of XIAP and survivin were involved in compounds 1–3 induced apoptosis.
as §5

XIAP = experiment: Western blot, XIAP expression in A549 cells; format: cell-based, human; conditions: 3 μM, 24 h, GAPDH as control
Protocol: as §6, §5

caspase-3 = experiment: Western blot, caspase-3 level in A549 cells; format: cell-based, human; conditions: 3 μM, 24 h, β-actin as control
Protocol: as §4, §5

[4] = Homo sapiens, NCI-H1299, 24 h treatment
[5] = Homo sapiens, MRC5, 24 h treatment
[6] = Homo sapiens, A549, 24 h treatment

SMILES: O=C1C[C@@H](c2ccc(Oc3c(-c4ccc(O)cc4)oc4cc(O)cc(O)c4c3=O)cc2)Oc2cc(O)cc(O)c21 [Compound 1, (2″S)-2″,3″-dihydrodelicaflavone]
- IC50 (H1299 cells; [4]): 7.3 µM
- apoptosis incidence in A549 cells (A549 cells [1]): 41.3%
- IC50 (MRC-5 cells; [5]): > 100 µM
- IC50 (A549 cells [2]; [6]): 3.1 µM

SMILES: O=c1cc(-c2ccc(Oc3c(-c4ccc(O)cc4)oc4cc(O)cc(O)c4c3=O)cc2)oc2cc(O)cc(O)c12 [Compound 5, delicaflavone]
- IC50 (H1299 cells; [4]): 8.4 µM
- IC50 (MRC-5 cells; [5]): 36.8 µM
- IC50 (A549 cells [2]; [6]): 7.9 µM

SMILES: COc1cc(O)c2c(=O)c(Oc3ccc(-c4cc(=O)c5c(O)cc(O)cc5o4)cc3)c(-c3ccc(O)cc3)oc2c1 [Compound 3, 7-O-methyldelicaflavone]
- relative level of cleaved caspase-3 (cleaved caspase-3): upregulation
- IC50 (H1299 cells; [4]): 4 µM
- apoptosis incidence in A549 cells (A549 cells [1]): 82.4%
- G0/G1-phase cells (gate C in Figure 9A) (A549 cells [3]; 5 μM, control 60.8%): 45.3%
- cell cycle arrest, phase (A549 cells [3]): S phase
- percentage of cells at the S phase (A549 cells [3]; control 10.6%, concentration not in the sentence (5 μM by Figure 9)): 24.8%
- IC50 (MRC-5 cells; [5]): > 100 µM
- level of survivin expression (survivin): suppressed
- IC50 (A549 cells [2]; [6]): 2.3 µM
- level of XIAP expression (XIAP): suppressed
- relative level of caspase-3 (caspase-3): upregulation

SMILES: Cc1c(O)cc2c(c1O)C(=O)C[C@@H](c1ccc(Oc3c(-c4ccc(O)cc4)oc4cc(O)cc(O)c4c3=O)cc1)O2 [Compound 4, (2″S)-6″-methyl-2″,3″-dihydrodelicaflavone]
- IC50 (H1299 cells; [4]): 6.8 µM
- IC50 (MRC-5 cells; [5]): 58.2 µM
- IC50 (A549 cells [2]; [6]): 3.1 µM

SMILES: Cc1c(O)cc2oc(-c3ccc(Oc4c(-c5ccc(O)cc5)oc5cc(O)cc(O)c5c4=O)cc3)cc(=O)c2c1O [Compound 2, 6″-methyldelicaflavone]
- IC50 (H1299 cells; [4]): 7.3 µM
- apoptosis incidence in A549 cells (A549 cells [1]): 80.3%
- IC50 (MRC-5 cells; [5]): > 100 µM
- IC50 (A549 cells [2]; [6]): 2.8 µM

SMILES: N.N.[Cl][Pt][Cl] [DDP, Cis-platin, reference compound]
- relative level of cleaved caspase-3 (cleaved caspase-3): enhanced
- IC50 (H1299 cells; 24 h treatment): 24.5 µM
- IC50 (MRC-5 cells; 24 h treatment): 49 µM
- IC50 (A549 cells [2]; 24 h treatment): 13.3 µM
- relative level of caspase-3 (caspase-3): enhanced
